Source: the NIST ThermoML archive (doi:10.1016/j.fluid.2010.02.029)
Numbers after ± are expanded uncertainties. Values belong to the compound of their own block, whether it stands above or below them.

Legend:
[1] = 101.33 kPa, Crystal, radial heat flow
[2] = xn = mol fraction of the nth substance listed; conditions: 101 kPa, radial heat flow

thermal conductivity ([1]; 382.65 K): 8.35 ± 1.2 W/m/K
thermal conductivity ([1]; 418.7 K): 8.12 ± 1.1 W/m/K
Structure (SMILES): [Bi] [bismuth]

Structure (SMILES): [Cd] [cadmium] + [Bi]
thermal conductivity ([2]; 418.7 K, Crystal, x2 = 0.5504): 12.46 ± 1.7 W/m/K
thermal conductivity ([2]; 418.7 K, Liquid, x2 = 0.5504): 10.06 ± 1.4 W/m/K

thermal conductivity ([2]; 382.65 K, Crystal, x2 = 0.527): 13.25 ± 1.9 W/m/K
thermal conductivity ([2]; 382.65 K, Liquid, x2 = 0.527): 10.6 ± 1.5 W/m/K
Structure (SMILES): [In] [indium] + [Bi]
